# Entries after “also recorded” stand apart in the source; their conditions may differ. Where a name gives a salt, the structure may show the parent alone.
# Assays:
# [1] = system: Long Evans rats; assay: food consumption assay and body weight after IBU; assay type: in vivo, rat
# Procedure: (§1) Some rats received systemic or intra-BLA delivery of ibutamoren mesylate (IBU). For systemic drug delivery, rats were injected with 1 ml kg^−1 intraperitoneal injection (i.p.) of either vehicle or drug. […] A concentration of 0.5 mg ml^−1, diluted in saline, was used. For experiments using intra-BLA drug delivery, ibutamoren mesylate was solubilized in artificial cerebrospinal fluid (pH=7.4) to a concentration of 0.5 μg μl^−1.
# For some rats, food consumption was monitored. After fear conditioning as described above, each rat was returned to its home cage in a holding room. Each rat had 200 g of chow placed in the food hopper. Food was quickly weighed and returned 30 minutes, 1 hour, 2 hours, and 3 hours after fear conditioning ended. Three days after fear recall testing (five days after fear conditioning), food consumption was measured during the same time points within the day, but while the rats were undisturbed in their home cages in the vivarium.
# To assess fear memory strength, conditional freezing was expressed as the percentage of time spent freezing, a probability estimate amenable to analysis with parametric statistics. These estimates of freezing, as well as hormone levels and data related to food consumption and body weight, were analyzed using ANOVA. Post hoc Fisher's PLSD tests were performed after a significant omnibus F-ratio.
# [2] = system: Long Evans rats; assay: auditory fear conditioning after chronic immobilization stress or handling; assay type: in vivo, rat; settings: FIG. 4F
# Procedure: as §1
# (§2) On the fear conditioning day, rats were exposed to four tone-shock pairings with a 60 second ITI (460 seconds total time). For context extinction, rats were returned to the conditioning context for 12 minutes total. For tone extinction, rats were exposed to twelve tones (10 seconds, 85 dB) for 960 seconds total. Conditioning, context and tone extinction sessions were separated by 24 hours.
# Infrared cameras (frame rate: 30 Hz) and VideoFreeze software (MedAssociates; St Albans, Vt.) were used to record behavior during all training and testing sessions. Motor activity was measured using the “motion index”, a number generated by the VideoFreeze software, which corresponds roughly to the change in grayscale values across the image pixels; a higher motion index indicates greater movement. Freezing was measured by computing the number of observations below a threshold motion index and converting this number to a percentage of all observations for the period of interest. The threshold defined the value of the motion index below which only motor activity related to breathing was observed. […]
# To determine whether the decrease in ghrelin binding sites in the BLA of chronically stressed rats exerts a functional impact, rats received either chronic immobilization stress or handling for two weeks followed by auditory fear conditioning (FIG. 4E). IBU, at the dose shown to reduce fear memory strength in unstressed rats (FIGS. 3A-D), or VEH was injected immediately after conditioning and long-term auditory fear memory was assessed two days later. […]
# [3] = in vivo; cited from earlier work
# [4] = system: Long Evans rats; assay: auditory Pavlovian fear conditioning and extinction testing, unstressed rats; assay type: in vivo, rat
# Procedure: All experiments used adult, male Long Evans rats (300-350 g, Charles River, Raleigh, N.C. or 250-275 g, Taconic, Germantown, N.Y.), individually housed (68-72° F.; 12-h light/dark cycle, 0700 h lights on). Control animals were housed in separate cubicles from stressed animals. Water and food was given ad libitum. All procedures were approved by the Institutional Animal Care and Use Committee of the Massachusetts Institute of Technology and the Animal Care and Use Review Office of the US Army Medical Research and Materiel Command and in accordance with the US National Institutes of Health (NIH) Guide for the Care and Use of Laboratory Animals.
# as §1
# Some rats received bilateral implants of stainless steel cannulae aimed at the BLA. Rats were anesthetized with a cocktail of 10 mg kg^−1 acepromazine, 100 mg kg^−1 xylazine, and 100 mg kg^−1 ketamine (1 ml kg^−1; i.p.) and placed in a dual arm stereotaxic frame (Kopf Instruments; Tujunga, Calif.). The rats were then implanted with 23 gauge guide cannulae 1 mm above LA using the following coordinates, relative to bregma and brain surface: A/P −2.0, M/L+/−5.3, D/V −5.4. Three jeweler screws were also implanted in the skull, and dental acrylic was used to secure the implant. Dummy cannulae extending 1 mm past the tip of the guide cannulae were placed into the guide cannula after surgery and changed every other day. Rats received 0.03 mg kg^−1 of Buprenex (1 ml kg^−1; subcutaneous injection (s.c.)) for post-operative pain management. All rats recovered for a minimum of 5 days.
# A subset of rats were subjected to auditory Pavlovian fear conditioning and extinction testing. All rats were transported in their home cages from the vivarium to a holding room in which no behavioral testing was conducted. This transport occurred at least one hour prior to the onset of any behavioral testing.
# For catheterized rats, each rat was placed in a fear conditioning box (MedAssociates; St. Albans, Vt.) scented with Pine-Sol (1%) for 250 sec total. The rats had 3 minutes to explore the novel environment before tone (10 seconds, 85 dB)-shock (2 seconds, 0.35 mA; coterminating with the tone) pairings [20 second intertrial intervals (ITIs)] were administered. Long-term context and tone fear memory was assessed the following day. For context extinction, the rats were returned to the fear conditioning context for a total of 10 minutes. Four hours later, tone extinction was administered by placing the rats in the fear conditioning boxes with an altered context. White Plexiglas inserts were used to obscure the back and side walls and cover the grid floor. Room and box lights were turned off, a red light provided illumination (15 W), and acetic acid (1%) was used to scent the boxes. Two minutes were allowed for exploration before a continuous tone (8 minutes, 87 dB) was presented. For rats with BLA cannula implants, all conditioning and testing was as described, except context and tone extinction were separated by 24 hours.
# as §2
# Infrared cameras (frame rate: 30 Hz) and VideoFreeze software (MedAssociates; St Albans, Vt.) were used to record behavior during all training and testing sessions. […]
# [5] = intra-BLA infusion (0.5 μg/μl) prior to fear conditioning, FIG. 3B
# [6] = systemic (i.p., 0.5 mg/ml) prior to fear conditioning, vs vehicle, FIG. 3A
# [7] = systemic, 0.5 mg/mL, following fear conditioning, FIG. 7A
structure (smiles),measurement,setting,value
"CC(C)(N)C(=O)N[C@H](COCc1ccccc1)C(=O)N1CCC2(CC1)CN(S(C)(=O)=O)c1ccccc12 [IBU, ibutamoren mesylate]",body weight measured 24 hours after injection,"[1]; intra-BLA infusion, FIG. 3D",does not change
same,body weight,"[1]; systemic, 0.5 mg/mL, IBU vs vehicle group, FIG. 3C right panel",did not differ
same,food consumption shortly following injection,"[1]; systemic, 0.5 mg/mL, relative to body weight, FIG. 3C left panel",does not impact
same,"food consumption cumulatively, over the 24 hours following injection","[1]; systemic, 0.5 mg/mL, relative to body weight, FIG. 3C middle panel",does not impact
same,food consumption shortly following injection,"[1]; systemic, 10 mg/mL (twenty times the dose), FIG. 7B left panel",does not impact
same,"food consumption cumulatively, over the 24 h following injection","[1]; systemic, 10 mg/mL (twenty times the dose), FIG. 7B middle panel",does not impact
same,long-term auditory fear memory (conditional freezing),"[2]; rats exposed to chronic immobilization stress (14 days), systemic IBU",no effect and not
same,freezing during fear conditioning (group differences),"[2]; stressed and unstressed rats, IBU or VEH",No group differences
same,long-term auditory fear memory,"[2]; unstressed (handled) rats, systemic IBU",reduced; also recorded: significantly impaired
same,crossing of the blood-brain barrier,[3],readily crosses
same,half-life,[3],> 6 h
same,fear acquisition,[4]; [5],without any effect; also recorded: without affecting
same,long-term auditory fear memory,[4]; [5],strongly inhibited; also recorded: significantly impaired
same,long-term contextual memory,[4]; [5],strongly inhibited; also recorded: significantly impaired
same,fear acquisition,[4]; [6],without impacting; also recorded: without affecting
same,long-term contextual memory,[4]; [6],without impacting; also recorded: without affecting
same,long-term auditory fear memory,"[4]; systemic (i.p., 1 ml/kg of 0.5 mg/ml) 30 minutes prior to fear conditioning, vs vehicle, FIG. 3A",significantly lower levels; also recorded: significantly impaired
same,fear acquisition,[4]; [7],without any effect; also recorded: without affecting
same,long-term auditory fear memory,[4]; [7],strongly inhibited; also recorded: significantly impaired
same,long-term contextual fear memory,[4]; [7],strongly inhibited; also recorded: significantly impaired

# Reference: US10317418B2, “Use of ghrelin or functional ghrelin receptor agonists to prevent and treat stress-sensitive psychiatric illness” (Massachusetts Institute of Technology, priority 2015, dated 2019)
